US11173124B2, “Oral delivery of GLP-1 peptide analogs” (MEDIMMUNE LIMITED, priority 2017, dated 2021)
Where “and” joins values, the source holds several entries; their conditions need not be identical. Identical values can stand only once. Starred links: 1 amine or outer side, 2 acyl side, 3 side chain; linkers in the order of their positions; H or OH if unused. Non-standard residues stand in square brackets, D forms with d. Residues, ends and D or L forms follow the SMILES beside them. Groups on a side chain read outwards from the residue. *: point of attachment. γGlu = O=C(O)[C@H](CCC(=O)[*:2])N[*:1]; αMeF = C[C@](N)(Cc1ccccc1)C(=O)O; αMeK = C[C@](N)(CCCCN)C(=O)O; Lauroyl = CCCCCCCCCCCC(=O)*; αMeS = C[C@](N)(CO)C(=O)O; AEEA = NCCOCCOCC(=O)O; Aib = CC(C)(N)C(=O)O

How the values were obtained:
[1] = Third rat ID infusion study, stabilized peptides vs semaglutide (Example 6); details: in vivo
Procedure: The third rat ID infusion study was performed to compare bioavailability of stabilized peptides MEDI7219 (SEQ ID NO:2) and SEQ ID NO:6 with that of semaglutide, H-His-Aib-[…]AEEAc-AEEAc-γ-Glu-17-carboxyheptadecanoyl)-[…]OH (SEQ ID NO:11), (Novo Nordisk), an un-stabilized GLP-1 peptide analog, that only has Aib in its sequence for protection from circulating DPP-IV peptidases, (Table 7 and FIG. 2B).

[2] = Canine study, MEDI7219 enterically coated tablet, single and repeated dosing (Example 14); type: in vivo
Procedure: Tablet optimization was further established in the following canine study. The goals of this study were to evaluate the performance of the group 8 tablet formulation (Example 13, Table 20) as an enterically-coated (EC) tablet and to evaluate repeated dosing of this formulation. A Eudragit formula dissolving at pH 5.5 or above was applied to the tablets as enteric coating. Enterically-coated tablets were administered on day 0 followed by a 1 week wash-out. Following wash-out, animals received additional doses on days 7, 8, 9, 10 and 11.

[3] = Canine study, MEDI7219 enterically coated tablets, enhancer ratios, amounts and peptide doses (Example 15); type: in vivo
Procedure: The next canine study (Table 22) was executed to confirm the performance of the formulation from the previous study (Example 14, Group 2 formulation, Table 21) at 1, 3 and 10 mg MEDI7219 (SEQ ID NO:2) peptide doses. The second goal was to explore the influence of formulation compositions designed around the Group 2 formulation with varying ratios and amounts of permeation enhancers in an enterically-coated tablet form on bioavailability and pharmacokinetic variability. The following formulation variables were tested: sodium chenodeoxycholate:propyl gallate ratios of 1:1, 1:2, and 1:3; 150, 300 and 450 mg of permeation enhancers at a 1:2 ratio; and 1, 3 and 10 mg peptide doses. All tablets were enterically coated with Eudragit formula dissolving at pH 5.5 and above.

[4] = Canine study, compositions around 6.5:1 Na CDC:PG ratio in enterically coated tablets (Example 23, Table 30); type: in vivo; details: dogs, oral enterically coated tablet
Source text: The following materials and methods were used for quantitative measurements of GLP-1 peptide analogs in plasma (e.g., rat or dog plasma) in the Examples below. These methods used a SCIEX 6600 TripleTOF mass spectrometer coupled with a Shimadzu ultra-high performance liquid chromatography (UHPLC). The specificity of the method was ensured by the retention time, the selected mass for Single-Reaction-Monitoring (SRM) mode, and the selected fragment mass in MS/MS (MS^2) mode.
The plasma extraction procedure used the following steps: • Samples, standards, and quality controls were incubated until they reached room temperature. They were then incubated at 60° C. for 2 minutes and cooled down to room temperature, vortexed, and spun down. • 70 μL of samples, standards, or quality controls were transferred into a 1 mL 96-well plate. • In each well, 420 uL of Precipitation Solution was added. The plate was sealed and shook for 10 minutes on a plate shaker at 600 rpm. • The plate was centrifuged at 18G, 2500 RFC, 20° C. for 10 minutes. • The plate was carefully removed, and the upper clear supernatant was extracted with a 200 uL multichannel pipette into a new 96-well protein lobind plate. The supernatant was extracted twice for each well, and the supernatants were combined. • The Plate was placed in TurboVap and the extracted supernatant was dried completely with heated (65° C.) Nitrogen gas at 60 Fahrenheit (Fh). • After the plate was completely dry, the plates were covered and incubated at room temperature for at least 30 minutes until the plate returned back to ambient temperature. • 150 μL of Reconstitution solution was added to each well. The plate was covered with a pierceable place seal and shaken at 600 rpm for 10 minutes. • The samples were submitted to the LC-MS/MS on the same day of Preparation
Quantification of the data obtained using the high resolution SCIEX 6600 instrument was then performed as follows: • For the quantification, extracted ion chromatograms (XIC) using 0.2 Da m/z extraction window centered on the accurate mass of each fragment ion were generated. Accurate mass was calculated from the structure of the compound. […] Concentrations of the target analyte in unknown samples were obtained by regression analysis using linear fits of peak areas vs. analyte concentration, weighted 1/(concentration). • The quality of the assay was controlled by the quality control samples. • Either Experiment 1 or Experiment 2 could be used for the quantification of the GLP-1 peptide analogs in high resolution mode.

[5] = 4:1 ratio, 120 mg Na CDC and 30 mg PG, 3 mg MEDI7219
[6] = 14:1 ratio, 140 mg Na CDC and 10 mg PG, 3 mg MEDI7219
[7] = 29:1 ratio, 145 mg Na CDC and 5 mg PG, 3 mg MEDI7219

CCCCCCCCCCCC(=O)N[C@@H](CCC(=O)NCCOCCOCC(=O)NCCOCCOCC(=O)NCCCC[C@H](NC(=O)[C@H](C)NC(=O)[C@@H](NC(=O)[C@](C)(Cc1ccccc1)NC(=O)[C@H](CCC(=O)O)NC(=O)[C@](C)(CCCCN)NC(=O)[C@H](C)NC(=O)[C@H](C)NC(=O)[C@H](CCC(=O)O)NC(=O)CNC(=O)[C@H](CCC(=O)O)NC(=O)[C@H](CC(C)C)NC(=O)[C@H](CCCCNC(=O)COCCOCCNC(=O)COCCOCCNC(=O)CC[C@H](NC(=O)CCCCCCCCCCC)C(=O)O)NC(=O)[C@H](CO)NC(=O)[C@](C)(CO)NC(=O)[C@@H](NC(=O)[C@H](CC(=O)O)NC(=O)[C@H](CO)NC(=O)[C@@H](NC(=O)[C@](C)(Cc1ccccc1)NC(=O)[C@H](CO)NC(=O)CNC(=O)[C@H](CCC(=O)O)NC(=O)C(C)(C)NC(=O)[C@@H](N)Cc1c[nH]cn1)[C@@H](C)O)C(C)C)[C@@H](C)CC)C(=O)N[C@H](C(=O)N[C@H](C(=O)N[C@@H](CCC(=O)O)C(=O)NCC(=O)NCC(N)=O)C(C)C)C(C)C)C(=O)O [MEDI7219, Free-H-[AIB]-EGS-[αMePhe]-TSDV-[αMeSer]-SK[(PEG2)2-γE-Lauroyl]-LEGEAA-[αMeLys]-E-[αMePhe]-IAK[(PEG2)2-γE-Lauroyl]-VVEGG-amide] (H-H[Aib]EGS[αMeF]TSDV[αMeS]SK([AEEA-AEEA-γGlu-Lauroyl])LEGEAA[αMeK]E[αMeF]IAK([AEEA-AEEA-γGlu-Lauroyl])VVEGG-NH2)
F [1]: significantly higher absolute bioavailability via ID route than semaglutide | half-life [1]: 10.4 h | AUC ([1]; iv, 0.01 mg/kg): 1590 ng·h/mL | Cmax ([1]; iv, 0.01 mg/kg): 264 ng/mL | F ([1]; iv, 0.01 mg/kg): 100% | half-life ([1]; iv, 0.01 mg/kg): 17 h | F ([2]; Enterically Coated Oral tablet (Eudragit, pH 5.5): 1 mg peptide, 100 mg Na CDC, 200 mg PG): 4.6% | F ([2]; Intravenous, 0.05 mg/kg, 0.5 mg/mL in 50 mM Tris, 150 mM mannitol, 0.02% Polysorbate 80, pH8.0): 100% | bioavailability and PK variability on repeated dosing ([2]; enterically coated tablet 1 mg peptide, 100 mg Na CDC, 200 mg PG, day 0, then days 7, 8, 9, 10 and 11): consistent bioavailability with reduced PK variability in subsequent dosing days | F ([3]; Intravenous, 0.05 mg/kg): 100% | F ([3]; Oral tablet, Group 10: 1 mg peptide, 100 mg Na CDC, 200 mg PG): 1.11% | F ([3]; Oral tablet, Group 11: 1 mg peptide, 100 mg Na CDC, 200 mg PG): 4.78% | F ([3]; Oral, Group 2 Enterically Coated tablet: 3 mg peptide, 100 mg Na CDC, 200 mg PG): 15.5% | F ([3]; Oral, Group 3 Enterically Coated tablet: 10 mg peptide, 100 mg Na CDC, 200 mg PG): 7.5% | F ([3]; Oral, Group 4 Enterically Coated tablet: 3 mg peptide, 75 mg Na CDC, 225 mg PG): 7.52% | F ([3]; Oral, Group 5 Enterically Coated tablet: 3 mg peptide, 50 mg Na CDC, 100 mg PG): 11.1% | F ([3]; Oral, Group 6 Enterically Coated tablet: 10 mg peptide, 50 mg Na CDC, 100 mg PG): 13.5% | F ([3]; Oral, Group 7 Enterically Coated tablet: 3 mg peptide, 150 mg Na CDC, 300 mg PG): 7.53% | F ([3]; Oral, Group 8 Enterically Coated tablet: 3 mg peptide, 150 mg Na CDC, 150 mg PG): 6.62% | F ([3]; Oral, Group 9 Enterically Coated tablet: 1 mg peptide, 100 mg Na CDC, 200 mg PG): > 4% and 4.2% | F [4, 5]: ~5.7% | PK variability (CV) at C max [4, 5]: 52.8% | F [4, 6]: ~4.6% | PK variability at C max [4, 6]: 84.4% | F [4, 7]: ~3.8% | PK variability at C max [4, 7]: 135.3% | F ([4]; No PG formulation, 150 mg Na CDC): ~0.6%
